Assay results published in ChEMBL document CHEMBL5678818, “Discovery of potent SOS1 inhibitors that block RAS activation via disruption of the RAS-SOS1 interaction” (Proc Natl Acad Sci U S A, 2019).
Activity calls are given as the source filed them. The calls are words filed in the database; no cut-off is given here.

Key:
[1] = target: Serine/threonine-protein kinase Nek4 (Homo sapiens) (UniProt P51957); test: Inhibition of NEK4 (unknown origin) assessed as residual activity at 100 nM by KINOMEscan analysis relative to control
Sequence of Serine/threonine-protein kinase Nek4 (Homo sapiens) (P51957 whole entry, looked up, the tested form may be a part): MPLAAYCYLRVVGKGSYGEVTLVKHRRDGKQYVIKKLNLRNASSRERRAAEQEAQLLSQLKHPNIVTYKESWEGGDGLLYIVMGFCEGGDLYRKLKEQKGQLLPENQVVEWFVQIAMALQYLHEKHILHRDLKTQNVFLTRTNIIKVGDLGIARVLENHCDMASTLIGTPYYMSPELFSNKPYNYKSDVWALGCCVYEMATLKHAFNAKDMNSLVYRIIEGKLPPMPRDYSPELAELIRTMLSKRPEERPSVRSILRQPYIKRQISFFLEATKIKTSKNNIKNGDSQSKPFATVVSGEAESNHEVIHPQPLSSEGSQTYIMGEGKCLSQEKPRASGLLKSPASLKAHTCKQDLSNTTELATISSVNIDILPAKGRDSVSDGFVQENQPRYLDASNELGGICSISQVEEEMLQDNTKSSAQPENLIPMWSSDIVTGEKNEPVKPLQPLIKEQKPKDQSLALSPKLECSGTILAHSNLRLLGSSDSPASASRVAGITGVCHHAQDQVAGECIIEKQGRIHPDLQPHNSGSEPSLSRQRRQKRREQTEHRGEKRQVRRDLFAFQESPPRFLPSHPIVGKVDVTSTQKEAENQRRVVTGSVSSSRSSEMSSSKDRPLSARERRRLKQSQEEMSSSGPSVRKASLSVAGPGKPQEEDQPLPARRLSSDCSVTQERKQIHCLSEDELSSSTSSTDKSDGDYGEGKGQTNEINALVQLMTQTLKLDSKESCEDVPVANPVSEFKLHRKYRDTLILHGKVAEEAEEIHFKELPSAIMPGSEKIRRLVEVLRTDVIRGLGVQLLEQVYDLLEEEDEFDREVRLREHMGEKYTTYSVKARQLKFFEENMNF

[2] = tested on: SOS1-KRAS (Homo sapiens), Q07889+P01116 [G12C]; test: Inhibition of N-terminal GST-tagged recombinant human KRAS G12C mutant (1 to 169 residues) expressed in Escherichia coli/N-terminal His10-tagged wild-type recombinant human SOS1 catalytic domain (564 to 1049 residues) expressed in Escherichia coli protein-protein interaction assessed as reduction in FRET signal by HTRF analysis
[3] = target: Ephrin type-A receptor 4 (Homo sapiens) (UniProt P54764); test: Inhibition of EPHA4 (unknown origin) assessed as residual activity at 100 nM by KINOMEscan analysis relative to control
Sequence of Ephrin type-A receptor 4 (Homo sapiens) (P54764 whole entry, canonical isoform): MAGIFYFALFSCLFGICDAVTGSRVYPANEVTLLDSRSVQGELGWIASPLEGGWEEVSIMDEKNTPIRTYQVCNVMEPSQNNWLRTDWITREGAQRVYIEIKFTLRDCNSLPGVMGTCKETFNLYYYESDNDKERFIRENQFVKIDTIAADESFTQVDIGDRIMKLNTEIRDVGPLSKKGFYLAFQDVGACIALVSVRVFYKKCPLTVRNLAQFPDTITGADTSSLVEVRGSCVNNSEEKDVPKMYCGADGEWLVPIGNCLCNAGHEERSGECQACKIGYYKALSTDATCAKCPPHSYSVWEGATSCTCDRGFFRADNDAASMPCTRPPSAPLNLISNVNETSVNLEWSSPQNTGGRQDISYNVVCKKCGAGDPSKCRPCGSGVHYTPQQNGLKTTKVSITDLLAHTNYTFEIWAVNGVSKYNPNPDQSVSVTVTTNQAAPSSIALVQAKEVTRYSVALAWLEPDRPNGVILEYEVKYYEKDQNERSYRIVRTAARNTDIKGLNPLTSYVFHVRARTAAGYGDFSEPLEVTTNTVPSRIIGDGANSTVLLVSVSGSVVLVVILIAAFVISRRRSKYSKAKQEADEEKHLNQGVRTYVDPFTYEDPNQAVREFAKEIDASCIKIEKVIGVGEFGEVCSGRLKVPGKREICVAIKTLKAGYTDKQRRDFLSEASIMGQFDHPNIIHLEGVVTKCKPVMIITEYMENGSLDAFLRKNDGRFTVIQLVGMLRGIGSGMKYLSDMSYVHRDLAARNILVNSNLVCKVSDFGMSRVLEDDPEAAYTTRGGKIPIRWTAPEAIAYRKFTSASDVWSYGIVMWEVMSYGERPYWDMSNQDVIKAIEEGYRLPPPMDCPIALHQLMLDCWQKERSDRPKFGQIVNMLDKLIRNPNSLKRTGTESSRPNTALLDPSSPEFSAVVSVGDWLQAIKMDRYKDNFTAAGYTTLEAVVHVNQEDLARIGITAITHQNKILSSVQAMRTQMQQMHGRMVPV

[4] = target: Casein kinase I isoform gamma-3 (Homo sapiens) (UniProt Q9Y6M4); test: Inhibition of CSNK1G3 (unknown origin) assessed as residual activity at 100 nM by KINOMEscan analysis relative to control
Sequence of Casein kinase I isoform gamma-3 (Homo sapiens) (Q9Y6M4 whole entry, looked up, canonical isoform): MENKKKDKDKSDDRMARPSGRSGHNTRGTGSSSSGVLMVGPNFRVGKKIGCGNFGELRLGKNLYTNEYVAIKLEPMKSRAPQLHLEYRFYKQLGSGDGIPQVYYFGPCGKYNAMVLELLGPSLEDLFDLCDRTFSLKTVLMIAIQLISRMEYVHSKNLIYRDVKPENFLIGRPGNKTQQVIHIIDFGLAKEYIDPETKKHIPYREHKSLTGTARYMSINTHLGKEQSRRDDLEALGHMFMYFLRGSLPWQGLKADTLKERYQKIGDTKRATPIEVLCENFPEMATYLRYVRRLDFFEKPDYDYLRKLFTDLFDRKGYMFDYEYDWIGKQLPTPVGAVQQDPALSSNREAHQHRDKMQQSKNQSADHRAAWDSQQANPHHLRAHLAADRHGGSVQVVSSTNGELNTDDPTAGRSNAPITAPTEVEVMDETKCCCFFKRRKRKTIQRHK

[5] = tested on: Epidermal growth factor receptor (Homo sapiens), P00533 [L858R]; test: Inhibition of EGFR L858R mutant (unknown origin) assessed as residual activity at 100 nM by KINOMEscan analysis relative to control
[6] = target: T1, Serine/threonine-protein kinase LATS1 (Homo sapiens) (UniProt O95835); test: Inhibition of LATS1 (unknown origin) assessed as residual activity at 100 nM by KINOMEscan analysis relative to control
T1 sequence (whole entry): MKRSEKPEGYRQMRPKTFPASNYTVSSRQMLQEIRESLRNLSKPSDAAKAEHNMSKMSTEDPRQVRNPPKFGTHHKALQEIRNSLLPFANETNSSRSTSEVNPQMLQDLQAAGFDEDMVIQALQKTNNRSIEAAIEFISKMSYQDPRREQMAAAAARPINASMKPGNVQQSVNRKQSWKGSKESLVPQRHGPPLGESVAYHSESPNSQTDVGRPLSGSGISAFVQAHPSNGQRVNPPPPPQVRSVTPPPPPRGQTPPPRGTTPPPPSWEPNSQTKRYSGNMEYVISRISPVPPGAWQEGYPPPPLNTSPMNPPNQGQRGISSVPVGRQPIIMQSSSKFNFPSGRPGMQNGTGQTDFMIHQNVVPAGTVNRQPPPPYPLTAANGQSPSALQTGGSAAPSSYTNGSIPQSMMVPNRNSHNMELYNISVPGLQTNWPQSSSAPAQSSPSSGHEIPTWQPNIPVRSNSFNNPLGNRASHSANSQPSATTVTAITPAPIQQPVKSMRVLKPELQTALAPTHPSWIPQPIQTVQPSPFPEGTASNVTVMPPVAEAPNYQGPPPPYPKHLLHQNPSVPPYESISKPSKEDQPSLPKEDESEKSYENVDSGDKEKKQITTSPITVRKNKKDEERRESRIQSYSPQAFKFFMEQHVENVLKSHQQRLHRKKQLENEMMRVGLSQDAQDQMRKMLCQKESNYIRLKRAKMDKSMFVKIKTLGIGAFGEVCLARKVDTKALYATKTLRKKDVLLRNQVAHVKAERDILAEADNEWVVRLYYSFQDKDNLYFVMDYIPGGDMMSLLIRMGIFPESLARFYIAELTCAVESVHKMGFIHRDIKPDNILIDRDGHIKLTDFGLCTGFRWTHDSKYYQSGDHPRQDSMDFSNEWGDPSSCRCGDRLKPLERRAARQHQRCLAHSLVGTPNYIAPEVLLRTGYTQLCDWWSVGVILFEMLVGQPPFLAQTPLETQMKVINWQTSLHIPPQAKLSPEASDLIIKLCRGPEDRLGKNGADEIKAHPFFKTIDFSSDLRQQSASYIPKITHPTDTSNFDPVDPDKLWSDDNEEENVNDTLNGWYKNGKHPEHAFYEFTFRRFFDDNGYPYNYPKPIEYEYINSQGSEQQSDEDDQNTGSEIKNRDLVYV

[7] = target: T2, Mitogen-activated protein kinase kinase kinase 13 (Homo sapiens) (UniProt O43283); test: Inhibition of LZK (unknown origin) assessed as residual activity at 100 nM by KINOMEscan analysis relative to control
T2 sequence (whole entry): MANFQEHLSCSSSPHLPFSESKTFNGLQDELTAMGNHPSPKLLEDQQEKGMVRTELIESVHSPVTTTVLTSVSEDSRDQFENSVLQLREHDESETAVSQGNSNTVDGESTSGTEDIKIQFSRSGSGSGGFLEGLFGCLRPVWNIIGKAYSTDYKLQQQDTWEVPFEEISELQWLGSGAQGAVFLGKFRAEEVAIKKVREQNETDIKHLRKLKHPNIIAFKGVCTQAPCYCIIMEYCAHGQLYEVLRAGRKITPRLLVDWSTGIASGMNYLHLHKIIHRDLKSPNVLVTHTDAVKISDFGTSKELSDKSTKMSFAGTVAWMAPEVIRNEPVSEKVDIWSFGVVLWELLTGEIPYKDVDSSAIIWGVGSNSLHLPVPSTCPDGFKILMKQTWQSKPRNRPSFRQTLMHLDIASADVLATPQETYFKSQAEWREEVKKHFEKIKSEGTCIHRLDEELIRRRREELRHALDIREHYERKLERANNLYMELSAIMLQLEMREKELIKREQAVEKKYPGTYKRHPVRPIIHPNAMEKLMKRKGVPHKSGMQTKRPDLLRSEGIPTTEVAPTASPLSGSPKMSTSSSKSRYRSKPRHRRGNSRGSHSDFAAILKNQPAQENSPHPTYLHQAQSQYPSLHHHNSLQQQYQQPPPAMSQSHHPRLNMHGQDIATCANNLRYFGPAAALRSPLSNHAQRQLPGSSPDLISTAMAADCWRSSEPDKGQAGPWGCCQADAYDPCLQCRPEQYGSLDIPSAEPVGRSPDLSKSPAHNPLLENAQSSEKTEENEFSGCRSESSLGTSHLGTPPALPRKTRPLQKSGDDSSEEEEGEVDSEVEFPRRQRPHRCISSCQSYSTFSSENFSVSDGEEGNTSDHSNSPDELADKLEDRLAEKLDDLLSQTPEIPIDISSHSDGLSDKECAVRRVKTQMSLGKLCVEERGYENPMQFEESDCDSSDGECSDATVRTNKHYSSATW

[8] = target: Cyclin-dependent kinase 14 (Homo sapiens) (UniProt O94921); test: Inhibition of PFTK1 (unknown origin) assessed as residual activity at 100 nM by KINOMEscan analysis relative to control
Sequence of Cyclin-dependent kinase 14 (Homo sapiens) (O94921 whole entry): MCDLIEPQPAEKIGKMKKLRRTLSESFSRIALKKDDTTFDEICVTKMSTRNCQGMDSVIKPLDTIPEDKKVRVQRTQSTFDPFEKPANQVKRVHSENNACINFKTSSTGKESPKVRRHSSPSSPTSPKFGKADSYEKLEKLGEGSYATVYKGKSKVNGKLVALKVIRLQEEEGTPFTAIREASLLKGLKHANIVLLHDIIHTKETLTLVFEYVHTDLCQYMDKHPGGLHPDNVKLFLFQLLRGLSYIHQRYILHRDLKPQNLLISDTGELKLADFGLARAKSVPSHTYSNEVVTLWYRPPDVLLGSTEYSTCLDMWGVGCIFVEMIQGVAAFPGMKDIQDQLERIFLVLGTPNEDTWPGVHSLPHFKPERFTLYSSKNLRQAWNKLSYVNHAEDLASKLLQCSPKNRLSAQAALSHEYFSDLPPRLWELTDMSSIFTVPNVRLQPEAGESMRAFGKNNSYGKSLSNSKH

`COc1cc2ncnc(N[C@H](C)c3cccc4ccccc34)c2cc1OC` was tested, and the Activity [1] was 72%, the Activity [2] was “Active” and the Activity [3] was 86%. For the same molecule, the Activity [4] was 87%, the Activity [5] was 95% and the Activity [6] was 97%. The Activity [7] was 82% and the Activity [8] was 91%.
